Assay results reported in the NIST ThermoML archive (doi:10.1021/je501135p).
Numbers after ± are expanded uncertainties. Each block holds one molecule with its values, some of them ahead of it.

Conditions: Liquid, Ebulliometric method (Recirculating still)

vapor or sublimation pressure (444.48 K): 99 ± 1 kPa
vapor or sublimation pressure (444.51 K): 99 ± 1 kPa
SMILES: O=C1C=CCCC1 [2-cyclohexen-1-one]

vapor or sublimation pressure (433.38 K): 99 ± 3 kPa
SMILES: OC1CCCCC1 [cyclohexanol]

vapor or sublimation pressure (428.01 K): 99 ± 3 kPa
SMILES: O=C1CCCCC1 [cyclohexanone]
